According to PMC3625376 (Journal of the American Chemical Society, 2013):

Test system: blood glucose in diabetic rats
Assay: diabetic rat assay
Assay type: in vivo
Conditions: Figure 5 panels C and D

Substance	activity in lowering blood glucose in diabetic rats (in words)
WT insulin (biosynthetic): wild type (wt) biosynthetic insulin used as positive control	fully active
[Asp^B10, Lys^B28, Pro^B29]-insulin [DKP insulin (biosynthetic)]	fully active
